We go through eight molecules from paper PMC9723630 (2022).

For experiment [1], the system named is QD2-l (DNA, G4) GGTTGGCGCGAAGCATTCGCGGGTTGG
The experiment can be described thus: ITC. Particulars: K+ (20 mM potassium phosphate, 100 mM KCl; 120 mM K+), pH 7.0, 5% DMSO, 40 °C, site 1 of 2.

In experiment [2] the test system is QD2-l-2bp (DNA, G4) GGTTGGCGGCACGGGTTGG
The experiment can be described thus: ITC. The settings on record: K+ (20 mM potassium phosphate, 100 mM KCl; 120 mM K+); pH 7.0, 5% DMSO, 40 °C; site 1 of 2.

The test system of experiment [3] is D3-HP (DNA, hairpin) CTAGTCATTTTGACTAG
The experiment is described as follows: ITC. Particulars: K+ (20 mM potassium phosphate, 100 mM KCl; 120 mM K+), pH 7.0, 5% DMSO, 40 °C.

Experiment [4] deals with QD3-sbl (DNA, G4) TTAGGTGGGTAGGGTGGGCTAGTCATTTTGACTAGG
The experiment can be described thus: ITC. Particulars: K+ (20 mM potassium phosphate, 100 mM KCl; 120 mM K+), pH 7.0, 5% DMSO, 40 °C.

In experiment [5] the test system is TBA (DNA, G4) GGTTGGTGTGGTTGG
The experiment can be described thus: ITC. The settings on record: K+ (20 mM potassium phosphate, 100 mM KCl; 120 mM K+); pH 7.0, 5% DMSO, 40 °C.

Experiment [6] deals with QD2-l (DNA, G4) GGTTGGCGCGAAGCATTCGCGGGTTGG
The experiment can be described thus: CD melting at 295 nm. The settings on record: K+ (10 mM potassium phosphate), pH 7.0, 5 µM DNA, 1:1 ligand (5 µM), free Tm 50.3 °C.

Experiment [7] deals with D2-HP (DNA, hairpin) CGCGAAGCATTCGCG
The experiment is described as follows: ITC. The settings on record: K+ (20 mM potassium phosphate, 100 mM KCl; 120 mM K+); pH 7.0, 5% DMSO, 40 °C.

Experiment [8] concerns Q3-sbl (DNA, G4) TTAGGGTGGTAGGGTGGGGAAGG
The experiment can be described thus: ITC. The settings on record: K+ (20 mM potassium phosphate, 100 mM KCl; 120 mM K+), pH 7.0, 5% DMSO, 40 °C.

Experiment [9] deals with QD3-sbl (DNA, G4) TTAGGTGGGTAGGGTGGGCTAGTCATTTTGACTAGG
The experiment can be described thus: NMR titration and solution structure. The settings on record: K+ (10 mM potassium phosphate for structure; 120 mM K+ for titration); pH 7.0, 30 °C titration; intercalation at quadruplex-duplex junction, slow exchange.

Experiment [10] concerns Q3-sbl2 (DNA, G4) TTAGGTGGGTAGGGTGGGTGTG
The experiment can be described thus: NMR titration. The settings on record: K+ (10 mM potassium phosphate); pH 7.0, 30 °C, 0.75 mM DNA; stacks on 5'-tetrad.

For `CCN(CC)CCCNC(=O)c1ccc(-c2c3cccc(C)c3[n+](C)c3c2[nH]c2c(C)cccc23)cc1`, the Ka in [1] (Table S13 prints error 1.4×10^6) is 8.3e+06 ± 120000 M⁻¹; in [2] it was 7.1e+06 ± 77000 M⁻¹; in experiment [3], 16000 ± 2200 M⁻¹; in experiment [4] (site 1 of 2), 1.3e+07 ± 2.9e+06 M⁻¹; in [5], 26000 ± 8600 M⁻¹; in experiment [7], 45000 ± 14000 M⁻¹. Further, the Ka in experiment [8] (site 1 of 2) was 3.2e+06 ± 1.4e+06 M⁻¹. Further, the Tm increase in [6] is ~ 13 °C.

`CCOCCCNC(=O)c1ccc(-c2c3cccc(C)c3[n+](C)c3c2[nH]c2c(C)cccc23)cc1` had a Ka in [1] of 2.6e+06 ± 700000 M⁻¹.

For `CN(C)CCCNc1c2ccccc2nc2c1[nH]c1ccccc12`, the Ka in experiment [3] (site 1 of 2) was 1.3e+06 ± 120000 M⁻¹; in experiment [4] (site 1 of 2), 1.1e+07 ± 3.3e+06 M⁻¹; in experiment [8] (site 1 of 2), 2.1e+06 ± 610000 M⁻¹. Further, in [6], the Tm increase was ~ 5 °C.

Turning to `CN(C)CCN1C(=O)c2ccc3c4c(ccc(c24)C1=O)C(=O)N(CCN(C)C)C3=O`, the Ka in experiment [3] was 72000 ± 23000 M⁻¹; in experiment [4] (authors: competing sites may not be separated), 120000 ± 25000 M⁻¹; in experiment [8] it was 95000 ± 11000 M⁻¹.

For the molecule `CN(C)c1ccc(Nc2c3ccc(NC(=O)CCN4CCCC4)cc3nc3cc(NC(=O)CCN4CCCC4)ccc23)cc1`, the Ka in [3] (site 1 of 2) worked out at 2.9e+06 ± 690000 M⁻¹; in experiment [4] (site 1 of 2, authors: competing sites may not be separated), 1.4e+07 ± 6.1e+06 M⁻¹; in [8] (site 1 of 2), 3e+07 ± 2.3e+06 M⁻¹.

For the molecule `CN1C(=Cc2cc[n+](C)c3ccccc23)Sc2ccccc21`, the Ka in experiment [3] amounted to 41000 ± 2700 M⁻¹; in experiment [4] (site 1 of 2), 1.1e+06 ± 27000 M⁻¹; in experiment [8] it was 170000 ± 67000 M⁻¹.

As for `C[n+]1cc(NC(=O)c2ccc3ccc4ccc(C(=O)Nc5cc6ccccc6[n+](C)c5)nc4c3n2)cc2ccccc21`, the binding result in experiment [9] and in [10] was “yes” in each case. In [6] (complex 74 °C), the Tm increase is ~ 24 °C.

Consider `Cc1cccc2c1[nH]c1c(-c3ccc(C(=O)NCCCN(C)CCCN)cc3)c3cccc(C)c3[n+](C)c12`, for which, in experiment [1], the Ka was 7.9e+06 ± 900000 M⁻¹.
